# Assay results taken from US8106055B2, “Substituted amide compounds” (Gruenenthal GmbH, priority 2007, dated 2012).
# Biological target: T1, human μ opiate receptor (Homo sapiens, UniProt P35372)
# T1 construct: purchased PerkinElmer Life Sciences, Zaventem, Belgium RB-HOM; host or cells: CHO-K1 cells (membrane preparation)
# Assay: Affinity for the human μ opiate receptor ([3H]-naloxone displacement, CHO-K1 receptor membrane preparation, SPA)
# Assay type: binding
# Conditions: test concentration of 1 μM
# Method in brief: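 SPA, CHO-K1 hμ membranes; 1 nmol/l [3H]-naloxone; Tris-HCl 50 mmol/l + 0.06% BSA; 90 min RT; NSB with 100 μmol/l naloxone; β-counting. Readout: % inhibition of specific binding at 1 μM test compound.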
# T1 sequence (P35372 whole entry): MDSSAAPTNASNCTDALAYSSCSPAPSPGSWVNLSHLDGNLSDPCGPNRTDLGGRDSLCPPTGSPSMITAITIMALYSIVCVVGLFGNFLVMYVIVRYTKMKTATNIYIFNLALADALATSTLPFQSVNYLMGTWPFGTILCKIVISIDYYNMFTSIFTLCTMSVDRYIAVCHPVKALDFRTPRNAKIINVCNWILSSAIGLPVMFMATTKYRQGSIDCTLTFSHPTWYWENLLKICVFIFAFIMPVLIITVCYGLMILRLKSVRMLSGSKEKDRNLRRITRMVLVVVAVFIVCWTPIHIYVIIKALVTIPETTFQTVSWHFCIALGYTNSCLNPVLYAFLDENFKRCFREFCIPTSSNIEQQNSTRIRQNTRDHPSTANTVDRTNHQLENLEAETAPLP
row,Structure (SMILES),"μ (binding on the μ opioid receptor, % inhibition) [%]"
1,COc1ccc(S(=O)(=O)N(C)CCOCC(=O)NC2CCC(C(c3ccc(F)cc3)N(C)C)CC2)cc1 (stereo not drawn) [Example 549],29
2,CN(C)C(CCc1ccccc1)C1CCC(CNC(=O)COC2CCN(S(=O)(=O)c3ccc(F)cc3)C2)CC1 (stereo not drawn) [Example 574],18
3,COc1cc(C)c(S(=O)(=O)N(CCOCC(=O)NCC2CCC(C(CCc3ccccc3)N(C)C)CC2)Cc2ccccc2)c(C)c1C (stereo not drawn) [Example 562],23
4,Cc1cc(C)c(S(=O)(=O)N(C)CCOCC(=O)NCCC2CCC(C(c3cccc(F)c3)N(C)C)CC2)c(C)c1 (stereo not drawn) [Example 587],−5
5,COc1cc(C)c(S(=O)(=O)N2CCC(OCC(=O)NCC3CCC(C(CCc4ccccc4)N(C)C)CC3)C2)c(C)c1 (stereo not drawn) [Example 565],20
6,CN(C)C(CCc1ccccc1)C1CCC(CNC(=O)COC2CCN(S(=O)(=O)c3ccccc3)CC2)CC1 (stereo not drawn) [Example 578],12
7,"Cc1cc(C)c(S(=O)(=O)N(C)CCOCC(=O)NC2CCC(C(c3ccccc3)N(C)C)CC2)c(C)c1 (stereo not drawn) [Example 63, N-(4-((dimethylamino)(phenyl)methyl)cyclohexyl)-2-(2-(N,2,4,6-tetramethylphenylsulfamido)ethoxy)acetamide]",94
8,CN(C)C(c1ccc(Cl)cc1)C1CCC(CCNC(=O)COCCN(C)S(=O)(=O)c2ccc(OC(F)(F)F)cc2)CC1 (stereo not drawn) [Example 575],11
9,COc1cc(C)c(S(=O)(=O)N(CCOCC(=O)NCCC2CCC(C(c3ccc(F)cc3)N(C)C)CC2)Cc2ccccc2)c(C)c1C (stereo not drawn) [Example 554],28
10,COc1cc(C)c(S(=O)(=O)N(CCOCC(=O)NCC2CCC(C(c3ccc(Cl)cc3)N(C)C)CC2)Cc2ccccc2)c(C)c1C (stereo not drawn) [Example 560],22
11,COc1ccc(S(=O)(=O)N(C)CCOCC(=O)NCC2CCC(C(CCc3ccccc3)N(C)C)CC2)cc1 (stereo not drawn) [Example 550],20
12,CN(C)C(CCc1ccccc1)C1CCC(CNC(=O)COC2CCN(S(=O)(=O)c3ccc(Cl)cc3)C2)CC1 (stereo not drawn) [Example 557],26
13,CN(C)C(CCc1ccccc1)C1CCC(CNC(=O)COC2CCN(S(=O)(=O)c3cccc(C(F)(F)F)c3)C2)CC1 (stereo not drawn) [Example 552],23
14,COc1cc(C)c(S(=O)(=O)N2CCC(CCOCC(=O)NCCC3CCC(C(c4ccc(Cl)cc4)N(C)C)CC3)CC2)c(C)c1C (stereo not drawn) [Example 561],26
15,CN(C)C(c1ccc(F)cc1)C1CCC(CCNC(=O)COCCN(C)S(=O)(=O)c2ccc(Cl)cc2Cl)CC1 (stereo not drawn) [Example 586],3

# Same assay, conditions: test concentration of 1 μM; 1 µM
row,Structure (SMILES),"μ (binding on the μ opioid receptor, % inhibition) [%]"
1,COc1ccc(S(=O)(=O)N2CCCCC2COCC(=O)NCC2CCC(C(CCc3ccccc3)N(C)C)CC2)c(OC)c1 (stereo not drawn) [Example 420],53
2,COc1ccc(S(=O)(=O)N2CCCCC2COCC(=O)NCC2CCC(C(CCc3ccccc3)N(C)C)CC2)cc1OC (stereo not drawn) [Example 570],16

# Same assay, conditions: test concentration of 1 μM; read-out: μ (binding on the μ opioid receptor, % inhibition)
row,Structure (SMILES),inhibition at 1 µM [%]
1,"COc1ccc(S(=O)(=O)N(C)CCOCC(=O)NCC2CCC(C(c3cccs3)N(C)C)CC2)cc1OC (stereo not drawn) [Example 127, 2-(2-(3,4-Dimethoxy-N-methylphenylsulfonamido)ethoxy)-N-((4-((dimethylamino)(thiophen-2-yl)methyl)cyclohexyl)methyl)acetamide]",87
2,"CN(C)C(c1cccs1)C1CCC(CNC(=O)COCC2CCCN(S(=O)(=O)c3ccccc3)C2)CC1 (stereo not drawn) [Example 101, N-((4-((dimethylamino)(thiophen-2-yl)methyl)cyclohexyl)methyl)-2-((1-(phenylsulfonyl)piperidin-3-yl)methoxy)acetamide]",92
3,"COc1ccc(S(=O)(=O)N2CCCC2COCC(=O)NCC2CCC(C(c3cccs3)N(C)C)CC2)cc1 (stereo not drawn) [Example 105, N-((4-((dimethylamino)(thiophen-2-yl)methyl)cyclohexyl)methyl)-2-((1-(4-methoxyphenylsulfonyl)pyrrolidin-2-yl)methoxy)acetamide]",93
4,"CN(C)C(c1cccc(F)c1)C1CCC(NC(=O)COC2CCCCC2N(C)S(=O)(=O)c2ccc(Cl)c(Cl)c2)CC1 (stereo not drawn) [Example 132, 2-(2-(3,4-dichloro-N-methylphenylsulfonamido)cyclohexyloxy)-N-(4-((dimethylamino)(3-fluorophenyl)methyl)cyclohexyl)acetamide]",91
5,"CN(C)C(c1ccccc1)C1CCC(CNC(=O)COCCN(C)S(=O)(=O)c2ccc(Cl)cc2)CC1 (stereo not drawn) [Example 110, 2-(2-(4-chloro-N-methylphenylsulfonamido)ethoxy)-N-((4-((dimethylamino) (phenyl)methyl)cyclohexyl)methyl)acetamide]",87
6,"CN(C)C(c1cccs1)C1CCC(CNC(=O)COCCN(Cc2ccccc2)S(=O)(=O)c2ccccc2)CC1 (stereo not drawn) [Example 102, 2-(2-(N-benzylphenylsulfonamido)ethoxy)-N-((4-((dimethylamino)(thiophen-2-yl)methyl)cyclohexyl)methyl)acetamide]",94
7,"COc1ccc(S(=O)(=O)N2CCCCC2COCC(=O)NCC2CCC(C(c3ccccc3)N(C)C)CC2)c(OC)c1 (stereo not drawn) [Example 106, 2-((1-(2,4-dimethoxyphenylsulfonyl)piperidin-2-yl)methoxy)-N-((4-((dimethylamino)(phenyl)methyl)cyclohexyl)methyl)acetamide]",92
8,"COc1ccc(S(=O)(=O)N2CCCCC2CCOCC(=O)NC2CCC(C(c3cccs3)N(C)C)CC2)cc1 (stereo not drawn) [Example 6, N-(4-((dimethylamino)(thiophen-2-yl)methyl)cyclohexyl)-2-(2-(1-(4-methoxyphenylsulfonyl)piperidin-2-yl)ethoxy)acetamide]",99
9,"COc1cc(C)c(S(=O)(=O)N2CCCC(OCC(=O)NCCC3CCC(C(c4cccs4)N(C)C)CC3)C2)c(C)c1C (stereo not drawn) [Example 130, N-(2-(4-((dimethylamino)(thiophen-2-yl)methyl)cyclohexyl)ethyl)-2-(1-(4-methoxy-2,3,6-trimethylphenylsulfonyl)piperidin-3-yloxy)acetamide]",94
10,"COc1ccc(S(=O)(=O)N2Cc3ccccc3CC2COCC(=O)NCC2CCC(C(c3cccs3)N(C)C)CC2)cc1 (stereo not drawn) [Example 7, N-((4-((dimethylamino)(thiophen-2-yl)methyl)cyclohexyl)methyl)-2-((2-(4-methoxyphenylsulfonyl)-1,2,3,4-tetrahydroisoquinolin-3-yl)methoxy)acetamide]",99
11,"COc1ccc(S(=O)(=O)N(C)CCOCC(=O)NCCC2CCC(C(c3cccs3)N(C)C)CC2)cc1 (stereo not drawn) [Example 128, N-(2-(4-((dimethylamino)(thiophen-2-yl)methyl)cyclohexyl)ethyl)-2-(2-(4-methoxy-N-methylphenylsulfonamido)ethoxy)acetamide]",91
12,"COc1ccc(S(=O)(=O)N2CCCCC2COCC(=O)NCCC2CCC(C(c3cccs3)N(C)C)CC2)cc1OC (stereo not drawn) [Example 120, 2-((1-(3,4-dimethoxyphenylsulfonyl)piperidin-2-yl)methoxy)-N-(2-(4-((dimethylamino)(thiophen-2-yl)methyl)cyclohexyl)ethyl)acetamide]",92
13,"CN(C)C(c1ccccc1)C1CCC(CNC(=O)COC2CCN(S(=O)(=O)c3cccc(C(F)(F)F)c3)C2)CC1 (stereo not drawn) [Example 113, N-((4-((dimethylamino)(phenyl)methyl)cyclohexyl)methyl)-2-(1-(3-(trifluoromethyl)phenylsulfonyl)pyrrolidin-3-yloxy)acetamide]",90
14,"CN(C)C(c1cccs1)C1CCC(CNC(=O)COCCN(C)S(=O)(=O)c2ccc(Cl)cc2Cl)CC1 (stereo not drawn) [Example 8, 2-(2-(2,4-dichloro-N-methylphenylsulfonamido)ethoxy)-N-((4-((dimethylamino)(thiophen-2-yl)methyl)cyclohexyl)methyl)acetamide]",98
15,"CCN(CCOCC(=O)NCCC1CCC(C(c2cccs2)N(C)C)CC1)S(=O)(=O)c1c(C)cc(OC)c(C)c1C (stereo not drawn) [Example 103, N-(2-(4-((dimethylamino)(thiophen-2-yl)methyl)cyclohexyl)ethyl)-2-(2-(N-ethyl-4-methoxy-2,3,6-trimethylphenylsulfonamido)ethoxy)acetamide]",94
16,"COc1cc(C)c(S(=O)(=O)N(C)CCOCC(=O)NC2CCC(C(c3cccs3)N(C)C)CC2)c(C)c1 (stereo not drawn) [Example 111, N-(4-((dimethylamino)(thiophen-2-yl)methyl)cyclohexyl)-2-(2-(4-methoxy-N,2,6-trimethylphenylsulfonamido)ethoxy)acetamide]",92
17,"CN(C)C(c1cccs1)C1CCC(CCNC(=O)COCCN(Cc2ccccc2)S(=O)(=O)c2ccccc2)CC1 (stereo not drawn) [Example 116, 2-(2-(N-benzylphenylsulfonamido)ethoxy)-N-(2-(4-((dimethylamino)(thiophen-2-yl)methyl)cyclohexyl)ethyl)acetamide]",91
18,"CN(C)C(c1cccs1)C1CCC(CNC(=O)COC2CCN(S(=O)(=O)c3ccc(F)cc3)C2)CC1 (stereo not drawn) [Example 97, N-((4-((dimethylamino)(thiophen-2-yl)methyl)cyclohexyl)methyl)-2-(1-(4-fluorophenylsulfonyl)pyrrolidin-3-yloxy)acetamide]",92
19,"COc1ccc(S(=O)(=O)N2CCCCC2COCC(=O)NCC2CCC(C(c3cccs3)N(C)C)CC2)cc1OC (stereo not drawn) [Example 133, 2-((1-(3,4-Dimethoxyphenylsulfonyl)piperidin-2-yl)methoxy)-N-((4-((dimethylamino)(thiophen-2-yl)methyl)cyclohexyl)methyl)acetamide]",89
